Source: US7115649B2, “Methods of treating skin disorders using thio-oxindole derivatives” (Wyeth, priority 2002, dated 2006)

Experiments:
androgen receptor (AR) = biological target: T1, androgen receptor (AR) (Mus musculus, UniProt P19091); experiment: Androgen receptor agonistic and antagonistic activity, PRE-tk-luciferase reporter in L929 cells; assay type: cell-based
T1 construct: in the L929 cells which express the AR but not the PR; endogenous in cells; host or cells: L929 cells
T1 sequence (P19091 1-899): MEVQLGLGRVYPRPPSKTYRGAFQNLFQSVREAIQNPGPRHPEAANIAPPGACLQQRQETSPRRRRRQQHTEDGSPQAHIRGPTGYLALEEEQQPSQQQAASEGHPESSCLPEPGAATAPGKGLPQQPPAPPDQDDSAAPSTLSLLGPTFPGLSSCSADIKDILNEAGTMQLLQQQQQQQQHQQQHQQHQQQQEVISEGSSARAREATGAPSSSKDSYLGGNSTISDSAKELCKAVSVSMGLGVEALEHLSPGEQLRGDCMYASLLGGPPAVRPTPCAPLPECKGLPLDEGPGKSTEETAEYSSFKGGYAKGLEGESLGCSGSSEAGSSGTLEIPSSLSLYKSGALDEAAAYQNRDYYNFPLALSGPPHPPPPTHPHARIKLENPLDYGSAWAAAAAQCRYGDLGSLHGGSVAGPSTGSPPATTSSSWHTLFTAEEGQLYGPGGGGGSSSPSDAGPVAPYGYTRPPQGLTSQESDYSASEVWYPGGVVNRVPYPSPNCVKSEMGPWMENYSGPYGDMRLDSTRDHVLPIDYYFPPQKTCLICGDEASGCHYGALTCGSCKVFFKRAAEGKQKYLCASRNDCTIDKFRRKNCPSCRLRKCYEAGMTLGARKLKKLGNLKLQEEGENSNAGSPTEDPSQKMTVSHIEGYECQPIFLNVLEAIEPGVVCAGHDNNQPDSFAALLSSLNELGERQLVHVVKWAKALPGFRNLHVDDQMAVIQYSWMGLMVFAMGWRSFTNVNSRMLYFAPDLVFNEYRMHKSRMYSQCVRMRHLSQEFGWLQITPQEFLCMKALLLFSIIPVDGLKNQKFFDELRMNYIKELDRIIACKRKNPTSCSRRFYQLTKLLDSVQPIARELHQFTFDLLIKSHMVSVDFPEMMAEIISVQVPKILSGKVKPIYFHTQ
Experimental: The androgen receptor (AR) agonistic and antagonistic activity of the compositions of the invention in the L929 cells which express the AR but not the PR was evaluated as described in Zhang et al., Steroids, 65(10–11): 637–643 (October–November 2000).
Cells were plated in 96-well plates at 25,000 cells/well in DMEM (BioWhittaker) with 10% (v/v) fetal bovine serum (FBS). The next day, cells were infected with the adenovirus PRE-tk-luciferase reporter construct (2×10^9 pfu/ml particles) and kept in DMEM containing 10% charcoal stripped FBS for an additional 24 hours. […] To test the anti-androgenic activity, cells were co-treated with 3 nM DHT. Luciferase activity was measured 24 hours following the treatment.

acne vulgaris = experiment: Treatment of acne in a human patient, oral tablet daily; assay type: in vivo; conditions: about 20 mg tablet orally daily
Experimental: A human patient having acne vulgaris is treated according to the present invention. Specifically, 5-(5-Cyano-1-methyl-1H-pyrrol-2-yl)spiro[cyclohexane-1,3′-[3H]indol]-2′-ylidenecyanamide is orally delivered to the patient daily. Delivery is in the form of a tablet formulated to contain about 20 mg of 5′-(5-Cyano-1-methyl-1H-pyrrol-2-yl)spiro[cyclohexane-1,3′-[3H]indol]-2′-ylidenecyanamide.

eczema = experiment: Conditioning the skin of a human patient with severe eczema; assay type: in vivo; conditions: about 50 mg daily
Experimental: A human patient having a severe form of eczema is treated according to the present invention. Specifically, about 50 mg of 5′-(5-Cyano-1-methyl-1H-pyrrol-2-yl)spiro[cyclohexane-1,3′-[3H]indol]-2′-ylidenecyanamide is delivered to the patient daily.

**Q.** Which agonistic activity (androgen receptor (AR); at the maximum concentration tested (10 nM)) does the source give for Cn1c(C#N)ccc1-c1ccc2c(c1)C1(CCCCC1)C(=NC#N)N2 [5′-(5-Cyano-1-methyl-1H-pyrrol-2-yl)spiro[cyclohexane-1,3′-[3H]indol]-2′-ylidenecyanamide] here?
**A.** Its agonistic activity is “only marginal agonistic activity”.

**Q.** What about the IC50 (androgen receptor (AR); co-treated with 3 nM DHT, luciferase activity 24 hours after treatment, read-out: IC50 (anti-androgenic activity)) of the same molecule?
**A.** The IC50 was 0.313 µM.

**Q.** And the antagonistic activity (androgen receptor (AR); nine point dose response, co-treated with 3 nM DHT)?
**A.** The antagonistic activity was “significant antagonistic activity”.

**Q.** What about the acne vulgaris (acne vulgaris; after about 24 weeks) of the same molecule?
**A.** The acne vulgaris was “improvement in the acne vulgaris is observed”.

**Q.** What about the “presence of lesions caused by acne vulgaris” value (acne vulgaris; forty-five to sixty days after the treatment) of the same molecule?
**A.** The value was “a decrease in the presence of lesions caused by acne vulgaris is noticed”.

**Q.** What about the eczema (eczema; after about 12 weeks) of the same molecule?
**A.** The eczema was “improvement in the eczema is observed”.

**Q.** What about the “dryness of the skin” value (eczema; thirty days after the treatment) of the same molecule?
**A.** Its value is “a decrease in the dryness affected to the skin is noticed”.
